What follows are compounds tested on KRAS G12V dependent lung adenocarcinoma cell line, NCI-H441 (assay: Cellular pERK (Thr202/Tyr204) FRET/HTRF assay). Settings: Homo sapiens, NCI-H441, cellular pERK (Thr202/Tyr204) HTRF, NCI-H441 cells.
Type: cell-based
Procedure, shortened: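 Phospho-ERK1/2 (Thr202/Tyr204) quantified by two-antibody HTRF in lysed NCI-H441 cells. Cells seeded overnight, treated with test compounds for 1 hr at 37 °C against DMSO control, then lysed and detected at room temperature; IC50 obtained by curve fitting.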

Compound	IC50
C=C1CN2CCC3(CC3)[C@@]2(COc2nc(N3CCCC[C@H]4[C@H](F)[C@H]43)c3cnc(-c4cc(N)cc(Cl)c4C(F)(F)F)c(F)c3n2)C1 [Example 424, 3-chloro-5-(8-fluoro-4-((1S,7R,8S)-8-fluoro-2-azabicyclo[5.1.0]octan-2-yl)-2-(((R)-6′-methylenetetrahydrospiro[cyclopropane-1,1′-pyrrolizin]-7a′(5′H)-yl)methoxy)pyrido[4,3-d]pyrimidin-7-yl)-4-(trifluoromethyl)aniline]	< 50 nM
C#Cc1c(F)ccc2cc(N)cc(-c3ncc4c(N5CCOC[C@H]6[C@H](F)[C@H]65)nc(OC[C@]56C/C(=C\F)CN5CCC65CC5)nc4c3F)c12 [Example 362, 5-Ethynyl-6-fluoro-4-(8-fluoro-4-((1S,7S,8S)-8-fluoro-5-oxa-2-azabicyclo[5.1.0]octan-2-yl)-2-(((R,E)-6′-(fluoromethylene)tetrahydrospiro[cyclopropane-1,1′-pyrrolizin]-7a′(5′H)-yl)methoxy)pyrido[4,3-d]pyrimidin-7-yl)naphthalen-2-amine]	< 50 nM
[2H]C([2H])(F)Oc1c(F)ccc2cc(N)cc(-c3ncc4c(N5CCOC[C@H]6[C@H](F)[C@H]65)nc(OC[C@@]56CCCN5C[C@@H](C)C6)nc4c3F)c12 (single isomer, unassigned) [Example 214]	< 50 nM
[2H]C([2H])(Oc1nc(N2CCC=C[C@@H]3[C@@H](F)[C@@H]32)c2cnc(-c3cc(N)cc4cc(F)c(F)c(C#C)c34)c(F)c2n1)[C@@]12CCCN1C[C@H](F)C2 [Example 99, 5-ethynyl-6,7-difluoro-4-(8-fluoro-4-((1R,7S,8R)-8-fluoro-2-azabicyclo[5.1.0]oct-5-en-2-yl)-2-(((2R,7aS)-2-fluorotetrahydro-1H-pyrrolizin-7a(5H)-yl)methoxy-d2)pyrido[4,3-d]pyrimidin-7-yl)naphthalen-2-amine]	< 50 nM
C#Cc1c(F)ccc2cc(O)cc(-c3ncc4c(N5CCOC[C@H]6[C@H](F)[C@H]65)nc(OC[C@H]5CCCN5C)nc4c3F)c12 [Example 284, 5-ethynyl-6-fluoro-4-(8-fluoro-4-((1S,7S,8S)-8-fluoro-5-oxa-2-azabicyclo[5.1.0]octan-2-yl)-2-(((R)-1-methylpyrrolidin-2-yl)methoxy)pyrido[4,3-d]pyrimidin-7-yl)naphthalen-2-ol]	< 50 nM

Results, then the compound that gave them:

IC50	Compound
< 50 nM	[2H]C([2H])(Oc1nc(N2CCOC[C@H]3[C@H](F)[C@H]32)c2cnc(-c3cc(N)cc4ccc(F)c(CC)c34)c(F)c2n1)[C@@]12CCCN1C[C@H](F)C2 [Example 201, 5-ethyl-6-fluoro-4-(8-fluoro-4-((1S,7S,8S)-8-fluoro-5-oxa-2-azabicyclo[5.1.0]octan-2-yl)-2-(((2R,7aS)-2-fluorotetrahydro-1H-pyrrolizin-7a(5H)-yl)methoxy-d2)pyrido[4,3-d]pyrimidin-7-yl)naphthalen-2-amine]
500 to 10000 nM	[2H]C([2H])(Oc1nc(N2CCOC[C@@H]3[C@@H](F)[C@@H]32)c2cc(F)c(-c3cc(N)c(F)c(C)c3C(F)(F)F)c(F)c2n1)[C@@]12CCCN1C[C@H](F)C2 [Example 178, 5-(6,8-difluoro-4-((1R,7R,8R)-8-fluoro-5-oxa-2-azabicyclo[5.1.0]octan-2-yl)-2-(((2R,7aS)-2-fluorotetrahydro-1H-pyrrolizin-7a(5H)-yl)methoxy-d2)quinazolin-7-yl)-2-fluoro-3-methyl-4-(trifluoromethyl)aniline]
< 50 nM	[2H]C([2H])(Oc1nc(N2CCOC[C@H]3[C@H](F)[C@H]32)c2cnc(-c3cc(N)cc4ccc(F)c(C#C)c34)c(Cl)c2n1)[C@@]12CCCN1C[C@H](F)C2 [Example 269, 4-(8-Chloro-4-((1S,7S,8S)-8-fluoro-5-oxa-2-azabicyclo[5.1.0]octan-2-yl)-2-(((2R,7aS)-2-fluorotetrahydro-1H-pyrrolizin-7a(5H)-yl)methoxy-d2)pyrido[4,3-d]pyrimidin-7-yl)-5-ethynyl-6-fluoronaphthalen-2-amine]
50 to 500 nM	[2H]C([2H])(Oc1nc(N2CCOC[C@@H]3[C@@H](F)[C@@H]32)c2cc(Cl)c(-c3nc(N)cc(C)c3C(F)(F)F)c(F)c2n1)[C@@]12CCCN1C[C@H](F)C2 [Example 160, 6-(6-chloro-8-fluoro-4-((1R,7R,8R)-8-fluoro-5-oxa-2-azabicyclo[5.1.0]octan-2-yl)-2-(((2R,7aS)-2-fluorotetrahydro-1H-pyrrolizin-7a(5H)-yl)methoxy-d2)quinazolin-7-yl)-4-methyl-5-(trifluoromethyl)pyridin-2-amine]
< 50 nM	[2H]C([2H])(Oc1nc(N2CCOC[C@@H]3[C@H]2[C@@]3([2H])F)c2cnc(-c3cc(N)cc4ccc(F)c(C#C)c34)c(F)c2n1)[C@@]12CCCN1C[C@H](F)C2 [Example 185, 5-ethynyl-6-fluoro-4-(8-fluoro-4-((1S,7S,8S)-8-fluoro-5-oxa-2-azabicyclo[5.1.0]octan-2-yl-8-d)-2-(((2R,7aS)-2-fluorotetrahydro-1H-pyrrolizin-7a(5H)-yl)methoxy-d2)pyrido[4,3-d]pyrimidin-7-yl)naphthalen-2-amine]

Same assay, conditions: Homo sapiens, NCI-H441, cellular pERK HTRF, NCI-H441 (KRAS G12V) cells

Compound	IC50
[2H]C([2H])(Oc1nc(N2CCOC[C@H]3[C@H](F)[C@H]32)c2cc(C(F)(F)F)c(-c3cccc4sc(N)c(C#N)c34)c(F)c2n1)[C@@]12CCCN1C[C@H](F)C2 (atropisomer, axis not shown; (aS)) [Example 466, 2-amino-4-((S)-8-fluoro-4-((1S,7S,8S)-8-fluoro-5-oxa-2-azabicyclo[5.1.0]octan-2-yl)-2-(((2R,7aS)-2-fluorotetrahydro-1H-pyrrolizin-7a(5H)-yl)methoxy-d2)-6-(trifluoromethyl)quinazolin-7-yl)benzo[b]thiophene-3-carbonitrile]	< 50 nM
C#Cc1c(F)ccc2cc(N)cc(-c3ncc4c(N5CCOC[C@H]6[C@H](Cl)[C@H]65)nc(OC[C@]56CC(=C)CN5CCC65CC5)nc4c3C)c12 [Example 459, 4-(4-((1S,7S,8S)-8-Chloro-5-oxa-2-azabicyclo[5.1.0]octan-2-yl)-8-methyl-2-(((R)-6′-methylenetetrahydrospiro[cyclopropane-1,1′-pyrrolizin]-7a′(5′H)-yl)methoxy)pyrido[4,3-d]pyrimidin-7-yl)-5-ethynyl-6-fluoronaphthalen-2-amine]	< 50 nM

Same assay, conditions: Homo sapiens, NCI-H441, pERK HTRF, NCI-H441 cells (KRAS G12V)

Compound	IC50
[2H]C([2H])(Oc1nc(N2CCOC[C@H]3[C@H](F)[C@H]32)c2cnc(-c3cccc4cc(F)c(F)c(C#C)c34)c(F)c2n1)[C@@]12CCCN1C[C@H](F)C2 [Example 42, (1S,7S,8S)-2-(7-(8-Ethynyl-6,7-difluoronaphthalen-1-yl)-8-fluoro-2-(((2R,7aS)-2-fluorotetrahydro-1H-pyrrolizin-7a(5H)-yl)methoxy-d2)pyrido[4,3-d]pyrimidin-4-yl)-8-fluoro-5-oxa-2-azabicyclo[5.1.0]octane]	< 50 nM
[2H]C([2H])(F)Oc1c(F)c(F)cc2cc(N)cc(-c3ncc4c(N5CCCC[C@H]6[C@H](F)[C@H]65)nc(OC([2H])([2H])[C@@]56CCCN5C[C@H](F)C6)nc4c3F)c12 [Example 71, 6,7-Difluoro-4-(8-fluoro-4-((1S,7R,8S)-8-fluoro-2-azabicyclo[5.1.0]octan-2-yl)-2-(((2R,7aS)-2-fluorotetrahydro-1H-pyrrolizin-7a(5H)-yl)methoxy-d2)pyrido[4,3-d]pyrimidin-7-yl)-5-(fluoromethoxy-d2)naphthalen-2-amine]	< 50 nM
[2H]C([2H])(Oc1nc(N2CCCO[C@H]3C[C@H]32)c2cnc(-c3cc(O)cc4ccc(F)c(C#C)c34)c(F)c2n1)[C@@]12CCCN1C[C@H](F)C2 [Example 10, 4-(4-((1S,7R)-2-Oxa-6-azabicyclo[5.1.0]octan-6-yl)-8-fluoro-2-(((2R,7aS)-2-fluorotetrahydro-1H-pyrrolizin-7a(5H)-yl)methoxy-d2)pyrido[4,3-d]pyrimidin-7-yl)-5-ethynyl-6-fluoronaphthalen-2-ol]	< 50 nM
[2H]C([2H])(Oc1nc(N2CCCO[C@@H]3C[C@@H]32)c2cnc(-c3cc(N)cc4cc(F)c(F)c(C#C)c34)c(F)c2n1)[C@@]12CCCN1C[C@H](F)C2 [Example 18, 4-(4-((1R,7S)-2-Oxa-6-azabicyclo[5.1.0]octan-6-yl)-8-fluoro-2-(((2R,7aS)-2-fluorotetrahydro-1H-pyrrolizin-7a(5H)-yl)methoxy-d2)pyrido[4,3-d]pyrimidin-7-yl)-5-ethynyl-6,7-difluoronaphthalen-2-amine]	500 to 10000 nM
[2H]C([2H])(Oc1nc(N2CCCO[C@@H]3C[C@@H]32)c2c(OC)nc(-c3cc(N)cc4cc(F)c(F)c(C#C)c34)c(F)c2n1)[C@@]12CCCN1C[C@H](F)C2 [Example 33, 4-(4-((1R,7S)-2-Oxa-6-azabicyclo[5.1.0]octan-6-yl)-8-fluoro-2-(((2R,7aS)-2-fluorotetrahydro-1H-pyrrolizin-7a(5H)-yl)methoxy-d2)-5-methoxypyrido[4,3-d]pyrimidin-7-yl)-5-ethynyl-6,7-difluoronaphthalen-2-amine]	50 to 500 nM

Same assay, conditions: cellular pERK (Thr202/Tyr204) HTRF, NCI-H441 cells

Compound	IC50
[2H]C([2H])(Oc1nc(N2CCOC[C@H]3[C@H](F)[C@H]32)c2cc(F)c(-c3ccc(F)c4sc(N)c(C#N)c34)c(F)c2n1)[C@@]12CCCN1C[C@H](F)C2 (atropisomer, axis not shown; (aS)) [Example 357, 2-amino-4-((S)-6,8-difluoro-4-((1S,7S,8S)-8-fluoro-5-oxa-2-azabicyclo[5.1.0]octan-2-yl)-2-(((2R,7aS)-2-fluorotetrahydro-1H-pyrrolizin-7a(5H)-yl)methoxy-d2)quinazolin-7-yl)-7-fluorobenzo[b]thiophene-3-carbonitrile]	< 50 nM

Source: patent publication US20250282799A1, “SUBSTITUTED PYRIDO[4,3-d]PYRIMIDINES AS KRAS MODULATORS” (Alterome Therapeutics, Inc., priority 2023, published 2025)
